Assay results taken from US20060069132A1, “Azolecarboxamide herbicides” (priority 2004, published 2006).

Assays:
barnyardgrass [1] = assay: Test A pre-/postemergence herbicide test; assay type: in vivo, Echinochloa crus-galli
In short: (§1)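 Greenhouse injury scoring (0–100, complete control = 100) at approximately ten days follows simultaneous pre- and postemergence application. Soil received a directed spray after seeding; seedlings of 2–10 cm at the one- to two-leaf stage were sprayed to runoff.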

large crabgrass [2] = assay: Test A pre-/postemergence herbicide test; assay type: in vivo, Digitaria sanguinalis
In short: as §1

giant foxtail [3] = assay: Test A pre-/postemergence herbicide test; assay type: in vivo, Setaria faberi
In short: as §1

morningglory [4] = assay: Test A pre-/postemergence herbicide test; assay type: in vivo, Ipomoea spp.
In short: as §1

redroot pigweed = assay: Test A pre-/postemergence herbicide test; assay type: in vivo, Amaranthus retroflexus
In short: as §1

velvetleaf [5] = assay: Test A pre-/postemergence herbicide test; assay type: in vivo, Abutilon theophrasti
In short: as §1

barnyardgrass [6] = assay: Test B pre-/postemergence herbicide test; assay type: in vivo, Echinochloa crus-galli; details: for Plant response rating, Barnyardgrass: preemergence; for Barnyardgrass plant response rating: postemergence, visual rating, scale 0 (no effect) to 100 (complete control)
In short: (§2)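 Seeds were planted and treated preemergence with compounds formulated in a non-phytotoxic solvent mixture containing surfactant, while plants at the 1- to 4-leaf stage (2 to 18 cm) received postemergence sprays. Flooded paddy plants were grown to the 2-leaf stage. After 13 to 15 days in a greenhouse, injury was visually rated 0–100 against untreated controls.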

Surinam grass = assay: Test B pre-/postemergence herbicide test; assay type: in vivo, Urochloa decumbens; details: for Plant response rating, Surinam Grass: preemergence; for Surinam Grass plant response rating: postemergence, visual rating, scale 0 (no effect) to 100 (complete control)
In short: (§3)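 Formulation: non-phytotoxic solvent mix with surfactant. Timing: preemergence on seed and postemergence on 2–18 cm plants, applied concurrently. Readout after 13–15 d greenhouse: visual 0–100 control rating against controls.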

cocklebur = assay: Test B pre-/postemergence herbicide test; assay type: in vivo, Xanthium strumarium; details: for Plant response rating, Cocklebur: preemergence; for Cocklebur plant response rating: postemergence, visual rating, scale 0 (no effect) to 100 (complete control)
In short: as §2

corn = assay: Test B pre-/postemergence herbicide test; assay type: in vivo, Zea mays; details: for Plant response rating, Corn: preemergence; for Corn plant response rating: postemergence, visual rating, scale 0 (no effect) to 100 (complete control)
In short: as §3

large crabgrass [7] = assay: Test B pre-/postemergence herbicide test; assay type: in vivo, Digitaria sanguinalis; details: for Plant response rating, Crabgrass, Large: preemergence; for Crabgrass, Large plant response rating: postemergence, visual rating, scale 0 (no effect) to 100 (complete control)
In short: as §3

giant foxtail [8] = assay: Test B pre-/postemergence herbicide test; assay type: in vivo, Setaria faberi; details: for Plant response rating, Foxtail, Giant: preemergence; for Foxtail, Giant plant response rating: postemergence, visual rating, scale 0 (no effect) to 100 (complete control)
In short: as §3

lambsquarters = assay: Test B pre-/postemergence herbicide test; assay type: in vivo, Chenopodium album; details: for Plant response rating, Lambsquarters: preemergence; for Lambsquarters plant response rating: postemergence, visual rating, scale 0 (no effect) to 100 (complete control)
In short: as §3

morningglory [9] = assay: Test B pre-/postemergence herbicide test; assay type: in vivo, Ipomoea coccinea; details: for Plant response rating, Morningglory: preemergence; for Morningglory plant response rating: postemergence, visual rating, scale 0 (no effect) to 100 (complete control)
In short: as §2

pigweed = assay: Test B pre-/postemergence herbicide test; assay type: in vivo, Amaranthus retroflexus; details: for Plant response rating, Pigweed: preemergence; for Pigweed plant response rating: postemergence, visual rating, scale 0 (no effect) to 100 (complete control)
In short: as §3

rice [10] = assay: Test B pre-/postemergence herbicide test; assay type: in vivo, Oryza sativa; details: preemergence, 125 g ai/ha; 0 to 100 scale, 0 is no effect, 100 is complete control
In short: as §3

velvetleaf [11] = assay: Test B pre-/postemergence herbicide test; assay type: in vivo, Abutilon theophrasti; details: for Plant response rating, Velvetleaf: preemergence; for Velvetleaf plant response rating: postemergence, visual rating, scale 0 (no effect) to 100 (complete control)
In short: as §3

blackgrass = assay: Test B postemergence herbicide test; assay type: in vivo, Alopecurus myosuroides; details: postemergence, visual rating, scale 0 (no effect) to 100 (complete control)
In short: (§4)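 Postemergence plants were sprayed with formulated test chemicals at 2 to 18 cm height (1- to 4-leaf stage); paddy species were grown to the 2-leaf stage. After 13 to 15 days in a greenhouse, injury was rated visually against untreated controls on a 0–100 scale (0 = no effect, 100 = complete control).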

wheat = assay: Test B postemergence herbicide test; assay type: in vivo, Triticum aestivum; set-up: key to Wheat plant response rating: 0 = no effect, 100 = complete control; details: postemergence, visual rating, scale 0 (no effect) to 100 (complete control)
In short: as §4

wild oat = assay: Test B postemergence herbicide test; assay type: in vivo, Avena fatua; details: postemergence, visual rating, scale 0 (no effect) to 100 (complete control)
In short: as §4

rice [12] = assay: Test B flooded paddy test; assay type: in vivo, Oryza sativa; details: 1000 g ai/ha, visual rating, scale 0 to 100 (0 no effect, 100 complete control), 13 to 15 days
In short: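 Scale 0–100: zero equals no visible effect, 100 complete control, judged by eye relative to controls. Timing: 13 to 15 days in greenhouse post-treatment. Growth stage at spraying: two leaves (paddy) or one to four leaves, 2–18 cm (postemergence).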

[13] = test system: small flower umbrella sedge; assay: Test B flooded paddy test; assay type: in vivo, Cyperus difformis; details: 1000 g ai/ha, visual rating, scale 0 to 100 (0 no effect, 100 complete control), 13 to 15 days
In short: as §4

ducksalad = assay: Test B flooded paddy test; assay type: in vivo, Heteranthera limosa; details: 1000 g ai/ha, visual rating, scale 0 to 100 (0 no effect, 100 complete control), 13 to 15 days
In short: as §4

barnyardgrass [14] = assay: Test B flooded paddy test; assay type: in vivo, Echinochloa crus-galli; details: 1000 g ai/ha, visual rating, scale 0 to 100 (0 no effect, 100 complete control), 13 to 15 days
In short: as §4

[15] = Postemergence, 500 g ai/ha, 0 to 100 scale, 0 no effect, 100 complete control
[16] = Postemergence, 2000 g ai/ha, 0 to 100 scale, 0 no effect, 100 complete control
[17] = Preemergence, 500 g ai/ha, visual rating, 0 to 100 scale (0 no effect, 100 complete control)
[18] = Preemergence, 2000 g ai/ha, visual rating, 0 to 100 scale (0 no effect, 100 complete control)
[19] = preemergence, 500 g ai/ha, visual injury, 0 to 100 scale (0 no effect, 100 complete control)
[20] = 500 g ai/ha, visual rating 0-100, 0 no effect, 100 complete control
[21] = 125 g ai/ha, 0 to 100 scale, 0 is no effect, 100 is complete control

Cn1nc(C(C)(C)C)cc1C(=O)Nc1cccc(C#N)c1 [Compound 121]
90: Pigweed plant response rating (redroot pigweed; [15])
15: Barnyardgrass plant response rating (barnyardgrass [1]; [17]) | Foxtail, Giant plant response rating (giant foxtail [3]; [15]) | Plant response rating, Velvetleaf (velvetleaf [5]; [16])
25: Plant response rating, Foxtail, Giant (giant foxtail [3]; [16]) | Foxtail, Giant plant response rating (giant foxtail [3]; [17])
20: Morningglory plant response rating (morningglory [4]; [15]) | Plant response rating, Morningglory (morningglory [4]; [16]) | Morningglory plant response rating (morningglory [4]; [18]) | Plant response rating, Surinam Grass (Surinam grass; [20]) | Cocklebur plant response rating (cocklebur; 500 g ai/ha) | Plant response rating, Morningglory (morningglory [9]; [20]) | Plant response rating, Velvetleaf (velvetleaf [11]; [20]) | Velvetleaf plant response rating (velvetleaf [11]; 500 g ai/ha)
95: Pigweed plant response rating (redroot pigweed; [19])
35: Plant response rating, Barnyardgrass (barnyardgrass [1]; [16])
80: Plant response rating, Barnyardgrass (barnyardgrass [6]; [20]) | Lambsquarters plant response rating (lambsquarters; 125 g ai/ha) | Lambsquarters plant response rating (lambsquarters; 500 g ai/ha) | Plant response rating, Pigweed (pigweed; [21])
40: Barnyardgrass plant response rating (barnyardgrass [1]; [18])
75: Crabgrass, Large plant response rating (large crabgrass [2]; [18]) | Foxtail, Giant plant response rating (giant foxtail [3]; [18])
10: Barnyardgrass plant response rating (barnyardgrass [1]; [15]) | Crabgrass, Large plant response rating (large crabgrass [2]; [15]) | Plant response rating, Crabgrass, Large (large crabgrass [2]; [16]) | Crabgrass, Large plant response rating (large crabgrass [2]; [17]) | Velvetleaf plant response rating (velvetleaf [5]; [15]) | Velvetleaf plant response rating (velvetleaf [5]; [19]) | Surinam Grass plant response rating (Surinam grass; 125 g ai/ha) | Cocklebur plant response rating (cocklebur; 125 g ai/ha) | Corn plant response rating (corn; 500 g ai/ha) | Crabgrass, Large plant response rating (large crabgrass [7]; 125 g ai/ha) | Crabgrass, Large plant response rating (large crabgrass [7]; 500 g ai/ha) | Foxtail, Giant plant response rating (giant foxtail [8]; 500 g ai/ha) | Velvetleaf plant response rating (velvetleaf [11]; 125 g ai/ha) | Oat, Wild plant response rating (wild oat; 125 g ai/ha)
50: Plant response rating, Crabgrass, Large (large crabgrass [7]; [20]) | Pigweed plant response rating (pigweed; 500 g ai/ha)
30: Velvetleaf plant response rating (velvetleaf [5]; [18]) | Surinam Grass plant response rating (Surinam grass; 500 g ai/ha) | Pigweed plant response rating (pigweed; 125 g ai/ha) | Oat, Wild plant response rating (wild oat; 500 g ai/ha)
5: Morningglory plant response rating (morningglory [4]; [17])
100: Plant response rating, Pigweed (redroot pigweed; [16]) | Pigweed plant response rating (redroot pigweed; [18]) | Plant response rating, Lambsquarters (lambsquarters; [20]) | Plant response rating, Pigweed (pigweed; [20])
70: Plant response rating, Foxtail, Giant (giant foxtail [8]; [20]) | Plant response rating, Lambsquarters (lambsquarters; [21])
0: Barnyardgrass plant response rating (barnyardgrass [6]; 125 g ai/ha) | Barnyardgrass plant response rating (barnyardgrass [6]; 500 g ai/ha) | Plant response rating, Barnyardgrass (barnyardgrass [6]; [21]) | Plant response rating, Surinam Grass (Surinam grass; [21]) | Plant response rating, Cocklebur (cocklebur; [20]) | Plant response rating, Cocklebur (cocklebur; [21]) | Plant response rating, Corn (corn; [20]) | Corn plant response rating (corn; 125 g ai/ha) | Plant response rating, Corn (corn; [21]) | Plant response rating, Crabgrass, Large (large crabgrass [7]; [21]) | Foxtail, Giant plant response rating (giant foxtail [8]; 125 g ai/ha) | Plant response rating, Foxtail, Giant (giant foxtail [8]; [21]) | Morningglory plant response rating (morningglory [9]; 125 g ai/ha) | Morningglory plant response rating (morningglory [9]; 500 g ai/ha) | Plant response rating, Morningglory (morningglory [9]; [21]) | Plant response rating, Rice (rice [10]) | Plant response rating, Velvetleaf (velvetleaf [11]; [21]) | Blackgrass plant response rating (blackgrass; 125 g ai/ha) | Blackgrass plant response rating (blackgrass; 500 g ai/ha) | Wheat plant response rating (wheat; 125 g ai/ha) | Wheat plant response rating (wheat; 500 g ai/ha) | Rice plant response rating (rice [12]) | Sedge, Umbrella plant response rating [13] | Ducksalad plant response rating (ducksalad) | Barnyardgrass plant response rating (barnyardgrass [14])
